ChEMBL document CHEMBL5042529, “One-Pot Enzymatic Synthesis and Biological Evaluation of Ganglioside GM3 Derivatives as Potential Cancer Immunotherapeutics” (J Med Chem, 2022)
Activity calls are given as the source filed them. The rule behind the calls is not given here.

Legend:
[1] = Downregulation of LAMA5 gene expression in human A431 cells at 50 uM incubated for 24 hrs by RNA-seq analysis; assay type: functional; conditions: A-431
[2] = Downregulation of XIAP gene expression in human A431 cells at 50 uM incubated for 24 hrs by RNA-seq analysis; assay type: functional; conditions: A-431
[3] = Toxicity in BALB/c mouse transfected with mouse B16-Luc cells assessed as behavioral abnormalities at 5 mg/kg, sc qd treated for 7 days; assay type: organism-based; conditions: in vivo, 168 h, time 7 day
[4] = Toxicity in C57BL/6 mouse transfected with mouse B16-Luc cells assessed as behavioral abnormalities at 5 mg/kg, sc qd treated for 7 days; assay type: organism-based; conditions: in vivo, 168 h, time 7 day
Mus musculus [5] = assay: Increase in IL-12 expression in BALB/c mouse transfected with mouse B16-Luc cells assessed as […] at 5 mg/kg, ip qd treated for 7 days by ELISA; assay type: functional, organism-based; conditions: time 7.0 day
B16 [6] = assay: Anticancer activity against mouse B16-Luc cells transfected in BALB/c mouse assessed as cell atypia in tumor tissue at 5 mg/kg, ip qd treated for 7 days by H and E staining based microscopy; assay type: functional, organism-based; conditions: time 7.0 day
B16 [7] = assay: Anticancer activity against mouse B16-Luc cells transfected in C57BL/6 mouse assessed as nuclear pyknosis in tumor tissue at 5 mg/kg, ip qd treated for 7 days by H and E staining based microscopy; assay type: functional, organism-based; conditions: time 7.0 day
[8] = Cytotoxicity against mouse Neuro2a cells measured after 24 hrs by MTT assay; assay type: toxicity, cell-based, N2a
[9] = Downregulation of VAVI gene expression in human A431 cells at 50 uM incubated for 24 hrs by qPCR analysis; assay type: functional; conditions: A-431
[10] = Downregulation of HSPG2 gene expression in human A431 cells at 50 uM incubated for 24 hrs by qPCR analysis; assay type: functional; conditions: A-431
Mus musculus [11] = assay: Effect on IL-2 expression in C57BL/6 mouse transfected with mouse B16-Luc cells assessed as serum […] level at 5 mg/kg, ip qd treated for 7 days by ELISA; assay type: functional, organism-based; conditions: time 7.0 day
[12] = Downregulation of LAMA5 gene expression in human A431 cells at 50 uM incubated for 24 hrs by qPCR analysis; assay type: functional; conditions: A-431
[13] = Reduction of integrin beta1 expression in human A431 cells at 50 uM incubated for 24 hrs by Western blotting analysis; assay type: functional; conditions: A-431
[14] = Half life in C57BL/6 mouse 10 mg/kg, iv measured upto 24 hrs; assay type: ADME, organism-based; conditions: in vivo
B16 [15] = assay: Anticancer activity against mouse B16-Luc cells transfected in BALB/c mouse assessed as inflammatory cell infiltration in tumor tissue at 5 mg/kg, ip qd treated for 7 days by H and E staining based microscopy; assay type: functional, organism-based; conditions: time 7.0 day
Mus musculus [16] = assay: Effect on IL-2 expression in C57BL/6 mouse transfected with mouse B16-Luc cells assessed as serum IL-2 level at 5 mg/kg, ip qd treated for 7 days by ELISA; assay type: functional, organism-based; conditions: time 7.0 day
B16 [17] = assay: Anticancer activity against mouse B16-Luc cells transfected in BALB/c mouse assessed as tumor inhibition rate at 5 mg/kg, ip qd treated for 7 days; assay type: functional; conditions: 168 h, time 7 day
[18] = Apparent volume of distribution in C57BL/6 mouse at 10 mg/kg, iv measured upto 24 hrs; assay type: ADME, organism-based; conditions: in vivo
B16 [19] = assay: Anticancer activity against mouse B16-Luc cells transfected in C57BL/6 mouse assessed as relative tumor weight at 5 mg/kg, ip qd treated for 7 days (reference value: 8 + /- 4.1 g); assay type: functional; conditions: time 7 day
B16 [20] = assay: Anticancer activity against mouse B16-Luc cells transfected in C57BL/6 mouse assessed as cell atypia in tumor tissue at 5 mg/kg, ip qd treated for 7 days by H and E staining based microscopy; assay type: functional, organism-based; conditions: time 7.0 day
B16 [21] = assay: Anticancer activity against mouse B16-Luc cells transfected in C57BL/6 mouse assessed as increase in tumor necrotic area at 5 mg/kg, ip qd treated for 7 days by H and E staining based microscopy relative to control; assay type: functional, organism-based; conditions: time 7.0 day
[22] = Cytotoxicity against CHO cells measured after 24 hrs by MTT assay; assay type: toxicity, cell-based, Cricetulus griseus; conditions: Chinese hamster
[23] = Downregulation of XIAP gene expression in human A431 cells at 50 uM incubated for 24 hrs by qPCR analysis; assay type: functional; conditions: A-431
[24] = Downregulation of HSPG2 gene expression in human A431 cells at 50 uM incubated for 24 hrs by RNA-seq analysis; assay type: functional; conditions: A-431
B16 [25] = assay: Anticancer activity against mouse B16-Luc cells transfected in C57BL/6 mouse assessed as tumor inhibition rate at 5 mg/kg, ip qd treated for 7 days; assay type: functional; conditions: 168 h, time 7 day
Mus musculus [26] = assay: Effect on IL-2 expression in BALB/c mouse transfected with mouse B16-Luc cells assessed as serum IL-2 level at 5 mg/kg, ip qd treated for 7 days by ELISA; assay type: functional, organism-based; conditions: time 7.0 day
B16 [27] = assay: Anticancer activity against mouse B16-Luc cells transfected in BALB/c mouse assessed as nuclear pyknosis in tumor tissue at 5 mg/kg, ip qd treated for 7 days by H and E staining based microscopy; assay type: functional, organism-based; conditions: time 7.0 day
A-431 [28] = assay: Antimigratory activity in human A-431 cells assessed as inhibition of scratch at 50 uM measured after 24 hrs by Wound healing assay; assay type: functional; parameters: scale not given: the % may be the effect or the level left
[29] = Cytotoxicity against human A-431 cells measured after 24 hrs by MTT assay; assay type: toxicity, cell-based
A-431 [30] = assay: Inhibition of cell invasion in human A-431 cells assessed as inhibition rate at 50 uM incubated for 24 hrs by crystal violet staining based transwell assay; assay type: functional
[31] = Reduction of VAVI expression in human A431 cells at 50 uM incubated for 24 hrs by Western blotting analysis; assay type: functional; conditions: A-431
B16 [32] = assay: Anticancer activity against mouse B16-Luc cells transfected in BALB/c mouse assessed as increase in tumor necrotic area at 5 mg/kg, ip qd treated for 7 days by H and E staining based microscopy relative to control; assay type: functional, organism-based; conditions: time 7.0 day
[33] = Cytotoxicity against human HeLa cells measured after 24 hrs by MTT assay; assay type: toxicity, cell-based
B16 [34] = assay: Anticancer activity against mouse B16-Luc cells transfected in C57BL/6 mouse assessed as inflammatory cell infiltration in tumor tissue at 5 mg/kg, ip qd treated for 7 days by H and E staining based microscopy; assay type: functional, organism-based; conditions: time 7.0 day
B16 [35] = assay: Anticancer activity against mouse B16-Luc cells transfected in C57BL/6 mouse assessed as cellular debris in tumor tissue at 5 mg/kg, ip qd treated for 7 days by H and E staining based microscopy; assay type: functional, organism-based; conditions: time 7.0 day
Mus musculus [36] = assay: Effect on IgG expression in BALB/c mouse transfected with mouse B16-Luc cells assessed as serum IgG level at 5 mg/kg, ip qd treated for 7 days by ELISA; assay type: functional, organism-based; conditions: time 7.0 day
[37] = Cytotoxicity against rat PC-12 cells measured after 24 hrs by MTT assay; assay type: toxicity, cell-based
Mus musculus [38] = assay: Increase in IL-12 expression in C57BL/6 mouse transfected with mouse B16-Luc cells assessed as […] at 5 mg/kg, ip qd treated for 7 days by ELISA; assay type: functional, organism-based; conditions: time 7.0 day
B16 [39] = assay: Anticancer activity against mouse B16-Luc cells transfected in BALB/c mouse assessed as cellular debris in tumor tissue at 5 mg/kg, ip qd treated for 7 days by H and E staining based microscopy; assay type: functional, organism-based; conditions: time 7.0 day
[40] = Downregulation of VAVI gene expression in human A431 cells at 50 uM incubated for 24 hrs by RNA-seq analysis; assay type: functional; conditions: A-431
Mus musculus [41] = assay: Effect on IL-2 expression in C57BL/6 mouse transfected with mouse B16-Luc cells assessed as serum IgG level at 5 mg/kg, ip qd treated for 7 days by ELISA; assay type: functional, organism-based; conditions: time 7.0 day
B16 [42] = assay: Anticancer activity against mouse B16-Luc cells transfected in BALB/c mouse assessed as relative tumor weight at 5 mg/kg, ip qd treated for 7 days (reference value: 5.3 + /-1.4 g); assay type: functional; conditions: time 7 day
[43] = Clearance in C57BL/6 mouse at 10 mg/kg, iv measured upto 24 hrs; assay type: ADME, organism-based; conditions: in vivo

With `CCCCCCCCCCCCC/C=C/[C@@H](O)[C@H](CO[C@@H]1O[C@H](CO)[C@@H](O[C@@H]2O[C@H](CO)[C@H](O)[C@H](O[C@]3(C(=O)O)C[C@H](O)[C@@H](NC(=O)c4cccc(I)c4)[C@H]([C@H](O)[C@H](O)CO)O3)[C@H]2O)[C@H](O)[C@H]1O)NC(=O)CCCCCCCCCCCCCCCCC` the inhibition at 50 µM [1] was 50.8%, the inhibition at 50 µM [2] was 52.5% and the Activity [3] was “Non-Toxic”. The Activity [4] was “Non-Toxic”, the Activity (Mus musculus [5]) was “inactive” and the Activity (B16 [6]) was “Active”. The Activity (B16 [7]) was “Active”, the IC50 at 24 h [8] was > 200 µM and the inhibition at 50 µM [9] was 93.4%. For the same molecule, the inhibition at 50 µM [10] was 33.4%, the Activity (Mus musculus [11]) was “inactive” and the inhibition at 50 µM [12] was 54.1%. For the same molecule, the inhibition at 50 µM [13] was 14.7%, the half-life [14] was 56.8 h and the Activity (B16 [15]) was “Active”. For the same molecule, the Activity (Mus musculus [16]) was “inactive”, the inhibition in vivo at 5 mg/kg (B16 [17]) was 29.2% and the Vd [18] was 2.4 mL/mg. For the same molecule, the Activity (B16 [19]) was 4.3 g, the Activity (B16 [20]) was “Active” and the Activity (B16 [21]) was “Active”. For the same molecule, the IC50 at 24 h [22] was > 200 µM, the inhibition at 50 µM [23] was 46.2% and the inhibition at 50 µM [24] was 55.2%. For the same molecule, the inhibition in vivo at 5 mg/kg (B16 [25]) was 46.2%, the Activity (Mus musculus [26]) was “inactive” and the Activity (B16 [27]) was “Active”. For the same molecule, the Activity (A-431 [28]) was 46.7%, the IC50 at 24 h [29] was > 200 µM and the inhibition at 50 µM (A-431 [30]) was 36.6%. The inhibition at 50 µM [31] was 14.5%, the Activity (B16 [32]) was “Active” and the IC50 at 24 h [33] was > 200 µM. For the same molecule, the Activity (B16 [34]) was “Active”, the Activity (B16 [35]) was “Active” and the Activity (Mus musculus [36]) was “inactive”. For the same molecule, the IC50 at 24 h [37] was > 200 µM, the Activity (Mus musculus [38]) was “inactive” and the Activity (B16 [39]) was “Active”. For the same molecule, the inhibition at 50 µM [40] was 100%, the Activity (Mus musculus [41]) was “inactive” and the Activity (B16 [42]) was 5.3 g. For the same molecule, the CL [43] was 0.483 µL/min/mg.
